Measured values from PubChem BioAssay (NCI).
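Here, GI50 denotes the concentration required for 50% inhibition of growth. Definition used: TGI = concentration required for complete inhibition of growth.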

What was measured:
Experiment in all cases: NCI anticancer screen, dose series, 384-well format
PC-3 prostate = tested on: PC-3 prostate
SNB-19 CNS = tested on: SNB-19 CNS
KM12 colon = tested on: KM12 colon
MALME-3M melanoma = tested on: MALME-3M melanoma
HCT-116 colon = tested on: HCT-116 colon
OVCAR-5 ovarian = tested on: OVCAR-5 ovarian
HT29 colon = tested on: HT29 colon
SF-295 CNS = tested on: SF-295 CNS
DU-145 prostate = tested on: DU-145 prostate
SN12C renal = tested on: SN12C renal
OVCAR-3 ovarian = tested on: OVCAR-3 ovarian
NCI-H226 lung = tested on: NCI-H226 lung
U251 glioblastoma = tested on: U251 glioblastoma
NCI-H322M lung = tested on: NCI-H322M lung
CAKI-1 renal = tested on: CAKI-1 renal
RXF 393 renal = tested on: RXF 393 renal
HS 578T breast = tested on: HS 578T breast
OVCAR-8 ovarian = tested on: OVCAR-8 ovarian
UACC-62 melanoma = tested on: UACC-62 melanoma
M14 melanoma = tested on: M14 melanoma
SK-OV-3 ovarian = tested on: SK-OV-3 ovarian
BT-549 breast = tested on: BT-549 breast
MCF7 breast = tested on: MCF7 breast
MDA-MB-231 breast = tested on: MDA-MB-231 breast
OVCAR-4 ovarian = tested on: OVCAR-4 ovarian
IGROV1 ovarian = tested on: IGROV1 ovarian
EKVX NSCLC = tested on: EKVX NSCLC
A498 renal = tested on: A498 renal
HOP-92 NSCLC = tested on: HOP-92 NSCLC
COLO 205 colon = tested on: COLO 205 colon
SNB-75 CNS = tested on: SNB-75 CNS
LOX IMVI melanoma = tested on: LOX IMVI melanoma
A549 NSCLC = tested on: A549 NSCLC
NCI/ADR-RES ovarian = tested on: NCI/ADR-RES ovarian
786-0 renal = tested on: 786-0 renal
NCI-H460 NSCLC = tested on: NCI-H460 NSCLC
SR leukemia = tested on: SR leukemia
RPMI-8226 leukemia = tested on: RPMI-8226 leukemia
SK-MEL-28 melanoma = tested on: SK-MEL-28 melanoma
NCI-H522 lung = tested on: NCI-H522 lung
HL-60(TB) leukemia = tested on: HL-60(TB) leukemia
HCT-15 colon = tested on: HCT-15 colon
UO-31 renal = tested on: UO-31 renal
NCI-H23 lung = tested on: NCI-H23 lung
ACHN renal = tested on: ACHN renal
SF-539 CNS = tested on: SF-539 CNS
MOLT-4 leukemia = tested on: MOLT-4 leukemia
HCC-2998 colon = tested on: HCC-2998 colon
MDA-MB-435 melanoma = tested on: MDA-MB-435 melanoma
T-47D breast = tested on: T-47D breast
SK-MEL-5 melanoma = tested on: SK-MEL-5 melanoma
MDA-MB-468 breast = tested on: MDA-MB-468 breast
HOP-62 NSCLC = tested on: HOP-62 NSCLC

`Cc1c(C(=O)Nc2ccc(N3C[C@@H](C)O[C@@H](C)C3)nc2)cccc1-c1ccc(OC(F)(F)F)cc1` showed a GI50 (PC-3 prostate) of 12.4 µM, a TGI (PC-3 prostate) of 25 µM and a GI50 (SNB-19 CNS) of 15 µM. It also gave a TGI (SNB-19 CNS) of 28.4 µM, a GI50 (KM12 colon) of 12 µM and a TGI (KM12 colon) of 16.6 µM. It also gave a GI50 (MALME-3M melanoma) of 7.69 µM, a TGI (MALME-3M melanoma) of 19.6 µM and a GI50 (HCT-116 colon) of 6.16 µM. It also gave a TGI (HCT-116 colon) of 17.8 µM, a GI50 (OVCAR-5 ovarian) of 16.6 µM and a TGI (OVCAR-5 ovarian) of 30.7 µM. For the same compound, the GI50 (HT29 colon) was 3.55 µM, the TGI (HT29 colon) was 5.04 µM and the GI50 (SF-295 CNS) was 8.16 µM. For the same compound, the GI50 (DU-145 prostate) was 8.5 µM, the TGI (DU-145 prostate) was 20.9 µM and the GI50 (SN12C renal) was 13.7 µM. The TGI (SN12C renal) was 26.8 µM, the GI50 (OVCAR-3 ovarian) was 10.6 µM and the TGI (OVCAR-3 ovarian) was 15.3 µM. For the same compound, the GI50 (NCI-H226 lung) was 6.16 µM, the TGI (NCI-H226 lung) was 12.8 µM and the GI50 (U251 glioblastoma) was > 31.6 µM. For the same compound, the TGI (U251 glioblastoma) was > 31.6 µM, the GI50 (NCI-H322M lung) was 13.3 µM and the TGI (NCI-H322M lung) was 26.3 µM. For the same compound, the GI50 (CAKI-1 renal) was 14.7 µM, the TGI (CAKI-1 renal) was 28 µM and the GI50 (RXF 393 renal) was 4.85 µM. It also gave a TGI (RXF 393 renal) of 8.09 µM, a GI50 (HS 578T breast) of 8.01 µM and a TGI (HS 578T breast) of 20.9 µM. The GI50 (OVCAR-8 ovarian) was 10.6 µM, the TGI (OVCAR-8 ovarian) was 15.3 µM and the GI50 (UACC-62 melanoma) was 13 µM. The TGI (UACC-62 melanoma) was 17.5 µM, the GI50 (M14 melanoma) was 16 µM and the TGI (M14 melanoma) was 30.4 µM. The GI50 (SK-OV-3 ovarian) was 3.89 µM, the TGI (SK-OV-3 ovarian) was 5.34 µM and the GI50 (BT-549 breast) was 8.61 µM. It also gave a TGI (BT-549 breast) of 22.1 µM, a GI50 (MCF7 breast) of 7.5 µM and a TGI (MCF7 breast) of 13.7 µM. For the same compound, the GI50 (MDA-MB-231 breast) was 3.63 µM, the TGI (MDA-MB-231 breast) was 14.8 µM and the GI50 (OVCAR-4 ovarian) was 4.99 µM. It also gave a TGI (OVCAR-4 ovarian) of 14.9 µM, a GI50 (IGROV1 ovarian) of 12.3 µM and a TGI (IGROV1 ovarian) of 25.4 µM. The GI50 (EKVX NSCLC) was 5.38 µM, the TGI (EKVX NSCLC) was 12.6 µM and the GI50 (A498 renal) was 7 µM. It also gave a TGI (A498 renal) of 12.7 µM, a GI50 (HOP-92 NSCLC) of 5.92 µM and a TGI (HOP-92 NSCLC) of 14 µM. For the same compound, the GI50 (COLO 205 colon) was 3.35 µM, the TGI (COLO 205 colon) was 4.86 µM and the GI50 (SNB-75 CNS) was 5.67 µM. For the same compound, the GI50 (LOX IMVI melanoma) was 7.94 µM, the TGI (LOX IMVI melanoma) was 13.8 µM and the GI50 (A549 NSCLC) was 6.24 µM. For the same compound, the TGI (A549 NSCLC) was 11.7 µM, the GI50 (NCI/ADR-RES ovarian) was 5.04 µM and the TGI (NCI/ADR-RES ovarian) was 18 µM. For the same compound, the GI50 (786-0 renal) was 6.53 µM, the TGI (786-0 renal) was 17.5 µM and the GI50 (NCI-H460 NSCLC) was 9.46 µM. It also gave a TGI (NCI-H460 NSCLC) of 14.5 µM, a GI50 (SR leukemia) of 5.32 µM and a TGI (SR leukemia) of 13.4 µM. For the same compound, the GI50 (RPMI-8226 leukemia) was 6.67 µM, the TGI (RPMI-8226 leukemia) was 12.7 µM and the GI50 (SK-MEL-28 melanoma) was 12.3 µM. It also gave a TGI (SK-MEL-28 melanoma) of 17.8 µM, a GI50 (NCI-H522 lung) of 1.9 µM and a TGI (NCI-H522 lung) of 3.79 µM. It also gave a GI50 (HL-60(TB) leukemia) of 6.8 µM, a TGI (HL-60(TB) leukemia) of 12.7 µM and a GI50 (HCT-15 colon) of 7.15 µM. The TGI (HCT-15 colon) was 13.3 µM, the GI50 (UO-31 renal) was > 40.2 µM and the TGI (UO-31 renal) was > 54.6 µM. The GI50 (NCI-H23 lung) was 7.39 µM, the TGI (NCI-H23 lung) was 13.5 µM and the GI50 (ACHN renal) was 11.4 µM. The TGI (ACHN renal) was 24.8 µM, the GI50 (SF-539 CNS) was 11.2 µM and the TGI (SF-539 CNS) was 18.1 µM. It also gave a GI50 (MOLT-4 leukemia) of 4.21 µM, a TGI (MOLT-4 leukemia) of 15.4 µM and a GI50 (HCC-2998 colon) of 11.9 µM. For the same compound, the TGI (HCC-2998 colon) was 16.5 µM, the GI50 (MDA-MB-435 melanoma) was 17.6 µM and the TGI (MDA-MB-435 melanoma) was 32.7 µM. For the same compound, the GI50 (T-47D breast) was 1.47 µM, the TGI (T-47D breast) was 3.43 µM and the GI50 (SK-MEL-5 melanoma) was 7.06 µM. It also gave a TGI (SK-MEL-5 melanoma) of 13.1 µM, a GI50 (MDA-MB-468 breast) of 5.63 µM and a TGI (MDA-MB-468 breast) of 11.3 µM. It also gave a GI50 (HOP-62 NSCLC) of 2.23 µM and a TGI (HOP-62 NSCLC) of 4.12 µM.
